# Experimental data as given in PMC6030077, “Dual role of HDAC10 in lysosomal exocytosis and DNA repair promotes neuroblastoma chemoresistance” (Scientific Reports, 2018).
# Key:
# Format in all cases: cell-based, human
# BE(2)-C cells [1] = test: Colony formation assay; details: treated for 24 h, 11 more days growth
# Protocol: RNA isolation and real-time RT-PCR
# RNA was isolated from neuroblastoma cell lines using the RNeasy MiniKit (Qiagen) according to
# manufacturer's instructions. Real-time RT-PCR was performed as described in1. Data were normalized
# to neuroblastoma housekeeping genes SDHA and […] and depicted as fold change relative to
# negative control. The following primer pairs were used: HPRT (hypoxanthine
# phosphoribosyltransferase 1, forward: 5′-[…]-3′ reverse: 5′-
# -3′, ABCB1 (P-GP), forward: 5'-[…]-
# 3', reverse: 5'-[…]-3' , SDHA (succinate dehydrogenase complex,
# subunit A, forward: 5′-[…]-3′, reverse: 5′-
# BE(2)-C cells were seeded on 6-well plates at a density of 800 cells per well and treated as indicated
# for 24 hours. After 24 hours, drugs were washed out and cells were allowed to grow for 11 more days
# before staining of viable cell colonies with crystal violet (1 % crystal violet (w/v) in 70% ethanol). For
# quantification, the plates were scanned, and colonies were counted in […] binary pictures with the
# ITCN plugin for ImageJ software (U. S. National Institutes of Health, Bethesda, MD,
# USA; http://imagej.nih.gov/ij/).
# IMR-32 cells = test: Flow cytometric quantification of intracellular doxorubicin accumulation, IMR-32; details: 50 ng/ml doxorubicin +/− 7.5 µM tubastatin A, 18 h
# Protocol: For flow cytometric quantification of intracellular doxorubicin after HDAC6/10 inhibition, BE(2)-C, SK-N-AS, IMR-32, HAP1 wild type and HDAC10 knockout cells were seeded in 6-well dishes at a density of 1.5 ∗ 10^5 cells/well (BE(2)-C and SK-N-AS, HAP1) and 3 ∗ 10^5 cells/well (IMR-32). Cells were treated with 25 ng/ml, 50 ng/ml, 100 ng/ml or 1 µg/ml doxorubicin, respectively, for 3–48 h (see respective figure legend). Where indicated, cells were co-treated with HDAC6/10 or lysosomal inhibitors. In case of co-treatment with vacuolin-1, vacuolin-1 was directly added to cells under doxorubicin treatment 1 h or 24 h prior to analysis. Flow cytometric quantification of intracellular doxorubicin after HDAC6, HDAC10 or P-glycoprotein knockdown in BE(2)-C cells was performed 5 days (P-glycoprotein) or 6 days (HDAC6/10) after transfection with siRNA. To that end, cells were seeded 3–4 days after transfection into 6-well dishes at 1.5 ∗ 10^5 cells per well and treated with 100 ng/ml doxorubicin +/− HDAC6/10 and lysosomal inhibitors for the last 24 h. After doxorubicin treatment, BE(2)-C, SK-N-AS, IMR-32 and HAP1 cells were washed with ice-cold RPMI w/o phenol-red and detached using Trypsin/EDTA for 3 minutes at 37 °C. Cells were centrifuged, resuspended in RPMI w/o phenol red and doxorubicin fluorescence was quantified on a BD FACSCanto II platform using the PE filter setting.
# BE(2)-C cells [2] = test: Confocal fluorescence microscopy of doxorubicin-loaded damaged nuclei; details: 250 ng/ml doxorubicin + 7.5 µM tubastatin A, 24 h
# Protocol: BE(2)-C cells were seeded at a density of 2 ∗ 10^4 cells per well into an ibidi 8-well µ-slide one day before treatment. For analysis of doxorubicin uptake, cells were treated with 250 ng/ml doxorubicin +/− HDAC6/10 or lysosomal inhibitors for 24 h. The next day, cells were washed in PBS, fixed for 20 minutes using 4% PFA at room temperature, washed twice with PBS and counterstained with DAPI (4′,6-Diamidino-2-phenylindole). In case of LysoTracker® Red staining, cells were treated for 24 h with HDAC6/10 inhibitors. One hour before fixation, LysoTracker® Red was added at a final concentration of 50 nM and cells were stained for 1 h under standard cell culture conditions. Cells were washed as described, fixed for 15 minutes using 4% PFA at room temperature and counterstained as described above. […] Cells were fixed for 15 minutes using 4% PFA, permeabilized for 30 minutes with 0.2% Triton X-100 and blocked in 0.05% Triton X-100 and 3% BSA in PBS for 1 h at room temperature. Cells were stained with Phospho-Histone H2A.X (S139) primary antibody (CST #9718) over night (4 °C) and for 2 h with Alexa-488-labeled secondary antibody (ThermoFisher A-11008) at room temperature. Nuclei were counterstained with DAPI. Images were acquired on a Zeiss LSM710 (Oberkochen, Germany) laser scanning confocal microscope using the 40× objective.
# BE(2)-C cells [3] = test: Flow cytometric analysis of cell surface LAMP-1 (lysosomal exocytosis); details: 6 h tubastatin A 7.5 µM, bufexamac 30 µM, tubacin 7.5 µM, vacuolin-1 10 µM 1 h
# Protocol: (§1) Cells were dissociated from dishes using non-enzymatic cell dissociation reagent for five minutes. Cells were counted using a ViCell XR automatic cell counter (Beckmann Coulter) and 2.5 ∗ 10^5 cells were transferred into a pre-cooled 96-well round bottom plate (TPP92097). Cells were stained for 1.5–2 hours on ice with primary anti P-gp (Biozol ABA-AB00143-1.1), LAMP-1 (H4A3, DHSB) antibody or isotype control (DLN-05794, Dianova, […]) and for 1 hour with APC-labeled secondary antibody (Dianova 115-136-068). Cells were washed three times in FACS buffer (5% FBS in PBS) after each antibody incubation step. For evaluation of DNA double-strand breaks, cells were detached from dishes using trypsin, counted using a ViCell XR automatic cell counter (Beckmann Coulter) and transferred into a pre-cooled 96-well round bottom plate (4 ∗ 10^6 cells/well). Cells were fixed and permeabilized using the eBioscience^TM Foxp3/Transcription Factor Staining Buffer Set (Thermo Fisher Scientific). Cells were stained for 1.5 h with Phospho-Histone H2A.X (S139) primary antibody (CST #9718) and for 1 h in Alexa-488-labeled secondary antibody (ThermoFisher A-11008). Cells were washed three times in 1× permeabilization buffer after each antibody incubation step and fluorescence was quantified on a BD FACSCanto II platform.
# HDAC6 = test: Western blot analysis of tubulin K40 acetylation as a marker for HDAC6 inhibition; details: 24 h; bufexamac 30 µM, tubastatin A 7.5 µM, tubacin 7.5 µM
# Protocol: Western blot analysis was performed as previously described. The following antibodies were used: anti-HDAC6 (sc-11420, Santa Cruz), anti-HDAC10 (H3413, Sigma), anti-acetylated histone H3 (06-911, Merck Millipore), anti-histone H3 (9715, Cell Signaling Technology, Cambridge UK), anti-LAMP-1 (H4A3, DHSB, Iowa City, IA, USA), anti-LAMP-2 (H4B4; Santa Cruz Biotechnology), anti-acetylated tubulin (6–11B-1; Sigma), anti-tubulin (2148, Cell Signaling Technology), anti P-glycoprotein (13978 S, Cell Signaling Technology) and anti-β-actin (clone AC-15; Sigma).
# P-glycoprotein = test: Flow cytometric quantification of cell surface P-gp expression; details: BE(2)-C; 6 h tubastatin A 7.5 µM; vacuolin-1 10 µM 1 h
# Protocol: as §1
smiles,measurement,setting,value
CN1CCc2c(c3ccccc3n2Cc2ccc(C(=O)NO)cc2)C1 [tubastatin A],"growth of BE(2)-C cells in colony assays, combination with doxorubicin",BE(2)-C cells [1],effectively reduce growth
same,"doxorubicin accumulation, IMR-32",IMR-32 cells,increased accumulation of doxorubicin
same,"dying cells with highly condensed chromatin, combination with doxorubicin compared to doxorubicin alone",BE(2)-C cells [2],increased the number of dying cells
same,cell surface LAMP-1 levels,BE(2)-C cells [3],reduced surface LAMP-1 levels
same,HDAC6 inhibition (tubulin K40 acetylation),HDAC6,substantially inhibited HDAC6
same,cell surface P-gp levels,P-glycoprotein,slightly increased surface P-gp levels
